Laboratory results reported in patent US7018989B2, “Chemical compounds” (University College Cardiff Consultants, LTD, priority 1995, dated 2006).
Read-outs that look alike come from different tables or passages of the source.

Tests used:
HIV-2 [1] = experiment: Inhibition of HIV-2 in MT4 cells; type: cell-based; settings: Table 6; mean of two or more repeat experiments; read-out: HIV2 MT4: EC50 for inhibition of HIV-2 in MT4 cells
Method: (§1) Cells were infected with HIV-1 as previously described [Balzarini et al. AIDS (1991), 5, 21–28]. Briefly, 5×10^5 cells per milliliter were infected with HIV-1 or HIV-2 at 100 CCID50 (50% cell culture infective dose) per milliliter of cell suspension. Then 100 μL of the infected cell suspension was transferred to microtiter plate wells and mixed with 100 μL of the appropriate dilutions of the test compounds. After 4 days giant cell formation was recorded microscopically in the HIV-infected cell cultures [CEM], and after 5 days the number of viable cells was determined by trypan blue staining of the HIV-infected cell cultures [MT4].
(§2) The data columns are, in order: • HIV1 MT4: EC50 in μM for inhibition of HIV-1 in MT4 cells. • HIV2 MT4: EC50 in μM for inhibition of HIV-2 in MT4 cells. • CC50 MT4: CC50 in μM for toxicity to MT-4 cells. • HIV1 CEM: EC50 in μM for inhibition of HIV-1 in CEM cells. • HIV2 CEM: EC50 in μM for inhibition of HIV-2 in CEM cells. • HIV2 CEM-TK-: EC50 in μM for inhibition of HIV-2 in CEM/TK^− cells. • CC50 CEM: CC50 in μM for toxicity to CEM cells. • EC50 MSV: EC50 in μM for inhibition of MSV • MCC MSV: Minimum cytotoxic concentration in MSV assay

HIV1 d4T-Resistant = experiment: HIV1 in HeLa cells, d4T-resistant strain; type: cell-based, HIV-1; settings: read-out: EC50 HeLa HIV1 d4T-Resistant
HIV1 d4T-Sensitive = experiment: HIV1 in HeLa cells, d4T-sensitive strain; type: cell-based, HIV-1; settings: Table 4
HIV-1 [2] = experiment: Inhibition of HIV-1 in MT4 cells; type: cell-based; settings: Table 6; mean of two or more repeat experiments; read-out: HIV1 MT4: EC50 for inhibition of HIV-1 in MT4 cells
Method: as §1, §2

III-B strain of HIV-1 = experiment: microbe, parasite or virus in culture; type: cell-based
Method: (§3) C8166 cells. Cells were grown in RPMI 1640 with 10% calf serum. 4×10^4 cells per microtiter plate well were mixed with 5-fold dilutions of compound prior to addition of 10 CCID50 units of III-B strain of HIV-1 and incubated for 5–7 days (Betbeder et al. Antiviral Chem. Chemother. 1, 241–247, 1990). Formation of syncytia was examined from 2 days post-infection. Culture fluid was collected at 5–7 days and gp120 antigen production measured by ELISA (Mahmood and Hay, J. Immunol. Meth., 151, 9–13, 1992). […] Cell viability of infected and uninfected cells were assessed by the MTT-Formazen method (Pauwels et al. J. Virol. Meth. 20, 309–321, 1988).
(§4) Each assay was carried out in duplicate, on at least two separate occasions, and data quoted are the average of each separate assay.

MT-4 cells = experiment: Toxicity to MT-4 cells; type: cell-based, human; settings: Table 6; mean of two or more repeat experiments; read-out: CC50 MT4: CC50 for toxicity to MT-4 cells
Method: as §1, §2

HIV-1 [3] = experiment: microbe, parasite or virus in culture
Procedure, shortened: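 5×10^5 cells/mL, 100 CCID50/mL virus, + compound dilutions. CEM: giant cells scored microscopically, day 4. MT-4: viability by trypan blue, day 5.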

CEM cells = experiment: Toxicity to CEM cells; type: cell-based, human; settings: Table 6; mean of two or more repeat experiments
C8166 cells = experiment: Toxicity in C8166 cells (MTT-Formazen); type: cell-based; settings: Table 3
Method: as §3, §4

HIV-2 [4] = experiment: Inhibition of HIV-2 in CEM cells (giant cell formation); type: cell-based
Procedure, shortened: (§5)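 Trypan blue staining of MT-4 cultures on day 5 gave viable cell numbers; CEM cultures were checked microscopically for giant cells on day 4. Both cell types were infected at 100 CCID50/mL (5×10^5 cells/mL) and incubated with compound dilutions.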

HIV-2 [5] = experiment: Inhibition of HIV-2 in CEM/TK- cells; type: cell-based
Procedure, shortened: as §5

HIV RT = HIV RT (Human immunodeficiency virus type 1 group M subtype B, UniProt P03366); experiment: Inhibition of HIV reverse transcriptase; type: biochemical; settings: Table 4
[6] = tested on: HIV-1 (GB8 or IIIB strains); experiment: Anti-HIV-1 activity in JM cells; type: cell-based; settings: Human immunodeficiency virus 1, IIIB; HIV1 in JM; Table 2
Method: as §3
JM cells JM cells, which are relatively resistant to the antiviral effects of AZT and a number of its derivatives, were infected with HIV-1 strains and the antiviral and toxic effects of compounds assessed as for C8166 cells. Both GB8 or IIIB strains of HIV1 were used, with no delectable differences in the end-points noted.
as §4

[7] = tested on: Moloney Sarcoma Virus [MSV]; experiment: MSV-induced tumour formation and survival in NMRI mice; type: in vivo; settings: MSV infected mice; 50 [low] or 200 [high] mg/kg/day i.p. for 4 days
Method: Drug doses are 50[low ] or 200 [high] mg/kg/day given i.p. for 4 days starting 1 hour before MSV inoculation.
In Vivo Testing Inhibitory Effects of Test Compounds on the Initiation of MSV-Induced Tumour Formation in NRMI Mice and on the Survival of MSV Innoculated NMRI Mice.
Mice infected with Moloney Sarcoma Virus [MSV] were treated daily with either placebo, or d4T [at one of two doses] or with compound 324 at one of the same [equi-molar] doses.
Two- to three-day old NMRI mice (weighing—2 gram) were innoculated subcutaneously (s.c.) in the left hind leg with 50 μl MSV (100 foci forming units, as measured by in vitro determination of the virus-induced transformation of murine C3H embryo fibroblast cells). At 4 to 5 days post-infection, tumours develop and rapidly increase in volume upon further aging of the mice. Within 10 to 12 days post-infection, mice (then weighing—5 to 6 gram) die from the viral infection. Drug treatment started 1 hour prior to infection of the virus, and further compound administration was given daily i.p. for an additional 3 days. The mean day of tumour initiation (±standard deviation) and the mean day of survival of the mice (±standard deviation) was calculated and statistical significance of the average delay of tumour formation and the mean day of survival in the treated groups versus the untreated (control) group was assessed by two-tailed student's t-test.

[8] = Toxicity in C8166 cells (MTT-Formazen); type: cell-based; settings: human, Table 3
Method: as §3, §4

[9] = HIV1 in C8166 cells, Table 3, read-out: Activity EC50
[10] = Table 4, read-out: EC50 8166 HIV1
[11] = read-out: EC50 CEM HIV1, Table 4
[12] = read-out: HIV1 CEM: EC50 for inhibition of HIV-1 in CEM cells, Table 6, mean of two or more repeat experiments
[13] = Table 6, mean of two or more repeat experiments, read-out: HIV2 CEM: EC50 for inhibition of HIV-2 in CEM cells
[14] = Table 4, read-out: EC50 CEM TK− HIV2
[15] = Table 6, mean of two or more repeat experiments, read-out: HIV2 CEM-TK-: EC50 for inhibition of HIV-2 in CEM/TK^− cells
[16] = Human immunodeficiency virus 1, C8166, Table 4, read-out: EC50 8166 HIV1
[17] = Human immunodeficiency virus 1, CCRF-CEM, read-out: EC50 CEM HIV1
[18] = Human immunodeficiency virus 1, HeLa
[19] = Human immunodeficiency virus 2, CEM-TK(-), read-out: EC50 CEM TK^−

Compound	EC50 (HIV-2 [1]) [µM]	EC50 (HIV-1 [2]) [µM]	Selectivity CC50/EC50 × 10^3 (III-B strain of HIV-1)	EC50 (III-B strain of HIV-1; [9]) [µM]	CC50 (MT-4 cells) [µM]	EC50 (HIV-1 [3]; [12]) [µM]	CC50 (CEM cells) [µM]	CC50 (C8166 cells) [µM]	EC50 (HIV-2 [4]; [13]) [µM]	EC50 (HIV-2 [5]; [15]) [µM]	further results
COC(=O)C(C)NP(=O)(OCC1C=CC(n2cc(C)c(=O)[nH]c2=O)O1)Oc1cccc(C(F)(F)F)c1 (centres unmarked) [Compound 526, 2′,3′-dideoxy-2′,3′-didehydrothymidine 5′-(m-trifluromethylphenylmethoxyalaninyl) phosphoramidate]	0.11	0.05	250 × 10^3	0.0008	10	0.15	30	200	0.15	0.12	EC50 (HIV1 d4T-Resistant; Table 4): 0.05 µM; EC50 (HIV1 d4T-Sensitive): 0.04 µM; EC50 (III-B strain of HIV-1; [10]): 0.0008 µM; EC50 (HIV-1 [3]; [11]): 0.08 µM; EC50 (HIV-2 [5]; [14]): 0.06 µM
Cc1cn([C@H]2C[C@H](N=[N+]=[N-])[C@@H](CO)O2)c(=O)[nH]c1=O [AZT, 3′-azido-3′-deoxythymidine, reference compound]	–	–	–	–	–	–	–	–	–	–	EC50 (III-B strain of HIV-1; [16]): 0.008 µM; EC50 HIV RT (HIV RT): Inactive; EC50 (HIV-1 [3]; [17]): 0.003 µM; EC50 (HIV-2 [5]; Human immunodeficiency virus 2, CEM-TK(-), Table 4, read-out: EC50 CEM TK− HIV2): > 100 µM
COC(=O)C(CC(C)C)NP(=O)(OCC1C=CC(n2cc(C)c(=O)[nH]c2=O)O1)Oc1ccccc1 (centres unmarked) [Compound 864, 2′,3′-dideoxy-2′,3′-didehydrothymidine-5′-(phenyl N-methoxy-leucinyl) phosphoramidate]	0.5	0.2	>62.5 × 10^3	0.016	62	1.1	≥ 250	> 1000	2.23	0.4	–
Cc1cn(C2C=CC(COP(=O)(NC(Cc3ccccc3)C(=O)OCc3ccccc3)Oc3ccccc3)O2)c(=O)[nH]c1=O (centres unmarked) [Compound 866, 2′,3′-dideoxy-2′,3′-didehydrothymidine-5′-(phenyl N-methoxyglycinyl) phosphoramidate]	6.7	1.3	>1.25 × 10^3	0.8	≥ 250	6	≥ 250	> 1000	6	7	–
Cc1cn([C@H]2C=C[C@@H](CO)O2)c(=O)[nH]c1=O [d4T, 2′,3′-dideoxy-2′,3′-didehydrothymidine, reference compound]	–	–	0.6 × 10^3	–	–	–	–	–	–	–	EC50 (HIV1 d4T-Resistant; [18]): 3.38 µM; EC50 [6]: 0.8 µM; EC50 (HIV1 d4T-Sensitive; [18]): 0.86 µM; EC50 (III-B strain of HIV-1; [16]): 0.08 µM; EC50 (III-B strain of HIV-1; Human immunodeficiency virus 1, HIV1 in C8166, Table 2, read-out: EC50 C8166): 0.08 µM; EC50 (III-B strain of HIV-1; Human immunodeficiency virus 1, HIV1 in C8166 cells, Table 3, read-out: Activity EC50): 0.08 µM; EC50 HIV RT (HIV RT): Inactive; delay in death [7]: failed to give any detectable delay; delay in tumour appearance [7]: failed to give any detectable delay; EC50 (HIV-1 [3]; [17]): 0.5 µM; CC50 [8]: 50 µM; EC50 (HIV-2 [4]; [19]): 1.2 µM; EC50 (HIV-2 [5]; [19]): > 100 µM; EC50 (HIV-2 [5]; Human immunodeficiency virus 2, CEM-TK(-), read-out: EC50 CEM TK− HIV2): > 100 µM
CCc1ccc(OP(=O)(N[C@@H](C)C(=O)OC)OCC2C=CC(n3cc(C)c(=O)[nH]c3=O)O2)cc1 (some centres unmarked) [Compound 323, 2′,3′-dideoxy-2′,3′-didehydrothymidine 5′-(p-ethylphenylmethoxyalaninyl) Phosphoramidate]	0.063	0.057	15.6 × 10^3	0.0032	> 100	0.07	60	50	0.16	0.06	–
COC(=O)C(NP(=O)(OCC1C=CC(n2cc(C)c(=O)[nH]c2=O)O1)Oc1ccccc1)C(C)C (centres unmarked) [Compound 865, 2′,3′-dideoxy-2′,3′-didehydrothymidine-5′-(phenyl N-methoxyvalinyl) phosphoramidate]	11.2	3.6	>1.25 × 10^3	0.8	≥ 250	12.5	> 250	> 1000	12.5	4	–
COC(=O)C(C)NP(=O)(OC[C@@H]1C=C[C@H](n2cc(C)c(=O)[nH]c2=O)O1)Oc1cc(Cl)cc(Cl)c1 (some centres unmarked) [Compound 546, 2′,3′-dideoxy-2′,3′-didehydrothymidine 5′-(3,5-dichlorophenylmethoxyalaninyl) phosphoramidate]	0.12	0.037	100 × 10^3	0.001	10.5	0.12	26.9	100	0.15	0.12	EC50 (HIV1 d4T-Resistant; Table 4): 0.04 µM; EC50 (HIV1 d4T-Sensitive): 0.03 µM; EC50 (III-B strain of HIV-1; [10]): 0.001 µM; EC50 (HIV-1 [3]; [11]): 0.06 µM; EC50 (HIV-2 [5]; [14]): 0.06 µM
